# Measured values published in patent US20240018145A1, “[…]-DEPENDENT EN[…] TREATING OR […]” (priority 2020, published 2024).
# System: FLU A (PR/8/34)
# Assay: Flu A Neuraminidase Antiviral Assay
# Assay type: cell-based
# Details: not given
row,Compound,EC50
1,"O=C1c2c(O)c(=O)ccn2N2C(c3ccccc3)CCCC2N1CC1CC1 (single isomer, unassigned) [Compound 56D, 5-(cyclopropylmethyl)-7-hydroxy-1-phenyl-1,2,3,4,4a,5-hexahydrodipyrido[1,2-b:2′,1′-f][1,2,4]triazine-6,8-dione]",0.0377 µM
2,"CN1C(=O)c2c(O)c(=O)ccn2N2C1CCC(C)(C)C2(C)c1ccccc1 (single isomer, unassigned) [Compound 35A, 7-hydroxy-1,2,2,5-tetramethyl-1-phenyl-1,2,3,4,4a,5-hexahydrodipyrido[1,2-b:2′,1′-f][1,2,4]triazine-6,8-dione]",0.138 µM
3,"CN1C(=O)c2c(O)c(=O)ccn2N2C1CCCC2(C)c1ncccc1F (single isomer, unassigned) [Compound 27B, 1-(3-fluoropyridin-2-yl)-7-hydroxy-1,5-dimethyl-1,2,3,4,4a,5-hexahydrodipyrido[1,2-b:2′,1′-f][1,2,4]triazine-6,8-dione]",0.0171 µM
4,"CCN1C(=O)c2c(O)c(=O)ccn2N2C1CCCC2(C)c1cccc(C2CC2)n1 (single isomer, unassigned) [Compound 55B, 1-(6-cyclopropylpyridin-2-yl)-5-ethyl-7-hydroxy-1-methyl-1,2,3,4,4a,5-hexahydrodipyrido[1,2-b:2′,1′-f][1,2,4]triazine-6,8-dione]",0.0185 µM
5,"CN1C(=O)c2c(O)c(=O)ccn2N2C(c3ccccc3F)C(CC(F)F)CCC12 (single isomer, unassigned) [Compound 113A, 2-(2,2-difluoroethyl)-1-(2-fluorophenyl)-7-hydroxy-5-methyl-1,2,3,4,4a,5-hexahydrodipyrido[1,2-b:2′,1′-f][1,2,4]triazine-6,8-dione]",3.45 µM
6,"CN1C(=O)c2c(O)c(=O)ccn2N2C1CCC1(CCCC(F)(F)C1)C2c1ccccc1 (single isomer, unassigned) [Compound 75C, 3,3-difluoro-7′-hydroxy-5′-methyl-1′-phenyl-3′,4′,4a′,5′-tetrahydro-1′H-spiro[cyclohexane-1,2′-dipyrido[1,2-b:2′,1′-f][1,2,4]triazine]-6′,8′-dione]",0.14 µM
7,"CCOC1CCC2N(C)C(=O)c3c(O)c(=O)ccn3N2C1c1ccccc1 (centres unmarked) [Compound 152A, 2-ethoxy-7-hydroxy-5-methyl-1-phenyl-1,2,3,4,4a,5-hexahydrodipyrido[1,2-b:2′,1′-f][1,2,4]triazine-6,8-dione]",4.3 µM
8,"Cc1ccccc1C1C(CC(F)(C(F)(F)F)C(F)(F)F)CCC2N(C)C(=O)c3c(O)c(=O)ccn3N12 (single isomer, unassigned) [Compound 81A, 7-hydroxy-5-methyl-2-(2,3,3,3-tetrafluoro-2-(trifluoromethyl)propyl)-1-(o-tolyl)-1,2,3,4,4a,5-hexahydrodipyrido[1,2-b:2′,1′-f][1,2,4]triazine-6,8-dione]",0.0191 µM
9,"CN1C(=O)c2c(O)c(=O)ccn2N2C1CCCC21CCCc2ccccc21 (single isomer, unassigned) [Compound 32B, 7-hydroxy-5-methyl-3,3′,4,4a,4′,5-hexahydro-2H,2′H-spiro[dipyrido[1,2-b:2′,1′-f][1,2,4]triazine-1,1′-naphthalene]-6,8-dione]",0.156 µM
10,"CCCC1CCC2N(CC)C(=O)c3c(O)c(=O)ccn3N2C1c1ccccc1F (single isomer, unassigned) [Compound 96B, 5-ethyl-1-(2-fluorophenyl)-7-hydroxy-2-propyl-1,2,3,4,4a,5-hexahydrodipyrido[1,2-b:2′,1′-f][1,2,4]triazine-6,8-dione]",0.0022 µM

# Same assay, conditions: MDCK, 48 h
row,Compound,EC50
1,"CN1C(=O)c2c(O)c(=O)c(-c3nnn[nH]3)cn2N2C(c3ccccc3)C(CC(F)(F)F)CCC12 (centres unmarked) [Compound 134, 7-hydroxy-5-methyl-1-phenyl-9-(1H-tetrazol-5-yl)-2-(2,2,2-trifluoroethyl)-1,2,3,4,4a,5-hexahydrodipyrido[1,2-b:2′,1′-f][1,2,4]triazine-6,8-dione]",0.453 µM
